Columns and labels:
Assay in all cases: relative viability (nuclei count vs DMSO), 5 days (fraction); higher = more cells survive
[1] = system: NCI-H441
Outline: (§1)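 Each reported value is a median over duplicate plates. It expresses relative viability: treated-well nuclei count divided by vehicle-well nuclei count. Lung cancer cell lines in 1536-well plates were dosed by pin tool a day after seeding, alone with one drug or with a fixed anchor-drug dose plus five library-drug doses (not always all listed) in √10 steps, and nuclei were counted after 5 days.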

[2] = system: NCI-H1792
Outline: as §1

[3] = system: SK-MES-1
Outline: as §1

[4] = system: NCI-H1651
Outline: as §1

[5] = system: NCI-H520
Outline: as §1

[6] = system: LCLC-103H
Outline: as §1

[7] = system: RERF-LC-KJ
Outline: as §1

[8] = system: NCI-H2347
Outline: as §1

[9] = system: NCI-H522
Outline: as §1

[10] = system: PC-14
Outline: as §1

[11] = system: NCI-H596
Outline: as §1

CCN(CC)CCCCNc1ncc2cc(-c3cc(OC)cc(OC)c3)c(NC(=O)NC(C)(C)C)nc2n1 + COc1cccc2cc(-c3nc([C@H]4CC[C@H](C(=O)O)CC4)n4ncnc(N)c34)[nH]c12 [OSI-027] (partner 0.5 µM)
relative viability ([1]; first compound 0.01 µM): 0.56
relative viability ([1]; first compound 0.03162 µM): 0.669
relative viability ([1]; first compound 0.1 µM): 0.638
relative viability ([1]; first compound 0.3162 µM): 0.689
relative viability ([1]; first compound 1 µM): 0.623
relative viability ([2]; first compound 0.01 µM): 0.602
relative viability ([2]; first compound 0.03162 µM): 0.783
relative viability ([2]; first compound 0.1 µM): 0.706
relative viability ([2]; first compound 0.3162 µM): 0.723
relative viability ([2]; first compound 1 µM): 0.523
relative viability ([3]; first compound 0.01 µM): 0.627
relative viability ([3]; first compound 0.03162 µM): 0.654
relative viability ([3]; first compound 0.1 µM): 0.58
relative viability ([3]; first compound 0.3162 µM): 0.81
relative viability ([3]; first compound 1 µM): 0.521
relative viability ([4]; first compound 0.01 µM): 0.7
relative viability ([4]; first compound 0.03162 µM): 0.737
relative viability ([4]; first compound 0.1 µM): 0.782
relative viability ([4]; first compound 0.3162 µM): 0.79
relative viability ([4]; first compound 1 µM): 0.695
relative viability ([5]; first compound 0.01 µM): 0.251
relative viability ([5]; first compound 0.03162 µM): 0.228
relative viability ([5]; first compound 0.1 µM): 0.259
relative viability ([5]; first compound 0.3162 µM): 0.192
relative viability ([5]; first compound 1 µM): 0.155
relative viability ([6]; first compound 0.01 µM): 0.455
relative viability ([6]; first compound 0.03162 µM): 0.482
relative viability ([6]; first compound 0.1 µM): 0.456
relative viability ([6]; first compound 0.3162 µM): 0.386
relative viability ([6]; first compound 1 µM): 0.339
relative viability ([7]; first compound 0.01 µM): 0.549
relative viability ([7]; first compound 0.03162 µM): 0.678
relative viability ([7]; first compound 0.1 µM): 0.536
relative viability ([7]; first compound 0.3162 µM): 0.675
relative viability ([7]; first compound 1 µM): 0.515
relative viability ([8]; first compound 0.01 µM): 0.419
relative viability ([8]; first compound 0.03162 µM): 0.38
relative viability ([8]; first compound 0.1 µM): 0.408
relative viability ([8]; first compound 0.3162 µM): 0.381
relative viability ([8]; first compound 1 µM): 0.358
relative viability ([9]; first compound 0.01 µM): 0.639
relative viability ([9]; first compound 0.03162 µM): 0.625
relative viability ([9]; first compound 0.1 µM): 0.676
relative viability ([9]; first compound 0.3162 µM): 0.674
relative viability ([9]; first compound 1 µM): 0.698
relative viability ([10]; first compound 0.01 µM): 0.838
relative viability ([10]; first compound 0.03162 µM): 1.04
relative viability ([10]; first compound 0.1 µM): 1.12
relative viability ([10]; first compound 0.3162 µM): 0.974
relative viability ([10]; first compound 1 µM): 0.91
relative viability ([11]; first compound 0.01 µM): 0.63
relative viability ([11]; first compound 0.03162 µM): 0.74
relative viability ([11]; first compound 0.1 µM): 0.758
relative viability ([11]; first compound 0.3162 µM): 0.709
relative viability ([11]; first compound 1 µM): 0.528

— the supplement of paper PMC10307832
